Measurements as given in patent US9026203B2, “Photosensitizing compositions” (PCI Biotech AS, priority 2009, dated 2015).
Where two headings read alike, the source gives them in different places.

Assays:
[1] = Stability of aqueous solutions of salts at 40° C., analyzed by HPLC; assay type: physicochemical
Procedure: Aqueous solutions of TPPS2a salts (approx. 1% weight) were kept at 40° C. for 31 days. The solutions were analyzed by HPLC (HP 1100). The HPLC conditions were as follows:
Column: Agilent Extend C-18
Mobile phase: 85% methanol, 15% water
Detector: UV detector, 415 nm
Aqueous solutions of TPCS2a salts (approx. 1% weight) were kept at 40° C. for 31 days.

[2] = Solubility of salts in water (water added in 0.2 ml portions); assay type: physicochemical
From the text: The mixture was agitated until solid particles were broken up and dissolved.

[3] = system: target tumour (head and neck squamous cell carcinoma, osteosarcoma, skin metastases of breast cancer); conditions: other photosensitizers formulated in non-aqueous formulations; cited from earlier work
[4] = system: target tumour (head and neck squamous cell carcinoma, osteosarcoma, skin metastases of breast cancer); assay type: in vivo, patients; conditions: 0.25-1.0 mg/kg 4 days before illumination (652 nm, 60 J/cm^2), bleomycin 15 000 IU per m^2 i.v. 3 hours before illumination; a few weeks after treatment
Procedure: In addition, the patients received an intravenous injection of the cytotoxic agent bleomycin (15 000 IU per m^2 body surface) 3 hours before illumination. […] The aqueous formulation also made it possible to flush the injection needle and vein with saline after photosensitizer injection, thereby eliminating the unwanted effect of photosensitivity at or near to the injection site which is often observed for photosensitizers in non-aqueous formulations where such flushing is not possible. The patient population included patients with head and neck cancers (squamous cell carcinoma), osteosarcoma and skin metastases of breast cancer.

[5] = aqueous solution approx. 1% weight, 40° C. for 31 days, HPLC UV 415 nm

Row | Degradation [1] | Molecule | Degradation [1, 5] | also measured
1 | – | NCCO.NCCO.O=S(=O)(O)c1ccc(-c2c3nc(c(-c4ccc(S(=O)(=O)O)cc4)c4ccc([nH]4)c(-c4ccccc4)c4nc(c(-c5ccccc5)c5ccc2[nH]5)C=C4)C=C3)cc1 [Example 1, Meso-Tetraphenyl Porphyrin Disulphonate bis(monoethanolamine)] | No degradation | –
2 | No degradation | CNCC(O)C(O)C(O)C(O)CO.CNCC(O)C(O)C(O)C(O)CO.O=S(=O)(O)c1ccc(-c2c3nc(c(-c4ccccc4)c4ccc([nH]4)c(-c4ccccc4)c4nc(c(-c5ccc(S(=O)(=O)O)cc5)c5ccc2[nH]5)C=C4)C=C3)cc1 [Example 2, Meso-Tetraphenyl Porphyrin Disulphonate bis(meglumate)] | – | Minimum solubility in water [2]: 89.7 mg/mL
3 | No degradation | O=S(=O)(O)c1ccc(-c2c3nc(c(-c4ccccc4)c4ccc([nH]4)c(-c4ccccc4)c4nc(c(-c5ccc(S(=O)(=O)O)cc5)c5ccc2[nH]5)C=C4)C=C3)cc1.OCCNCCO.OCCNCCO [Example 4, Meso-Tetraphenyl Porphyrin Disulphonate bis(diethanolamine)] | – | –
4 | – | O=S(=O)(O)c1ccc(-c2c3nc(c(-c4ccc(S(=O)(=O)O)cc4)c4ccc([nH]4)c(-c4ccccc4)c4nc(c(-c5ccccc5)c5ccc2[nH]5)C=C4)C=C3)cc1.OCCN(CCO)CCO.OCCN(CCO)CCO [Example 6, Meso-Tetraphenyl Porphyrin Disulphonate bis(triethanolamine)] | No degradation | –
5 | – | Oc1cccc(-c2c3nc(c(-c4cccc(O)c4)c4ccc([nH]4)c(-c4cccc(O)c4)c4nc(c(-c5cccc(O)c5)c5ccc2[nH]5)CC4)C=C3)c1 [temoporfin] | – | Pain on administration [3]: can be associated with strong pain
6 | – | Meso-Tetraphenyl Chlorin Disulphonate bis(meglumate) [Example 8] | No degradation | Minimum solubility in water ([2]; approx. 50 mg salt, water added in 0.2 ml portions until dissolved): 38.9 mg/mL
7 | No degradation | Meso-Tetraphenyl Chlorin Disulphonate bis(monoethanolamine) [Example 7] | – | –
8 | – | Meso-tetraphenyl chlorin disulphonate [TPCS2a] | – | Clinical regression of the target tumour [4]: Complete clinical regression of the target tumour was induced in all patients

Row | Molecule | Degradation [1] | Degradation [1, 5] | also measured
9 | O=S(=O)(O)c1ccc(-c2c3nc(c(-c4ccc(S(=O)(=O)O)cc4)c4ccc([nH]4)c(-c4ccccc4)c4nc(c(-c5ccccc5)c5ccc2[nH]5)C=C4)C=C3)cc1.OCCN1CCCC1.OCCN1CCCC1 [Example 5, Meso-Tetraphenyl Porphyrin Disulphonate bis(1-(2-hydroxyethyl)pyrrolidine)] | No degradation | – | –
